These are literature values, as cited in patent US20050214224A1, “Lipid formulations for spontaneous drug encapsulation” (Nektar Therapeutics, priority 2003, published 2005).

For the data set the following is noted: hydrated state; lipid excipient.

For `CCCCCCCCCCCCCC(=O)OC[C@H](COP(=O)([O-])OCC[N+](C)(C)C)OC(=O)CCCCCCCCCCCCC` [DMPC, dimyristoylphosphatidylcholine], the “hydrated liquid transition temperature” value is 23.5 °C. With `CCCCCCCCCCCCCCCC(=O)OC[C@H](COP(=O)([O-])OCC[N+](C)(C)C)OC(=O)CCCCCCCCCCCCCCC` [DPPC, dipalmitoylphosphatidylcholine], the “hydrated liquid transition temperature” value was 42 °C.
